ChEMBL document CHEMBL3994564 (Medchemcomm, 2016)
≈ marks a conversion by molar mass, not a printed value.

What was measured:
Pseudomonas aeruginosa = test: Antibacterial activity against Pseudomonas aeruginosa ATCC 27853 after 24 hrs by MTT assay; type: functional; conditions: ATCC 27853, 24 h
Escherichia coli = test: Antibacterial activity against Escherichia coli ATCC 25922 after 24 hrs by MTT assay; type: functional; conditions: ATCC 25922, 24 h
[1] = target: T1, Beta-ketoacyl-[acyl-carrier-protein] synthase III (Escherichia coli K-12, UniProt P0A6R0); test: Inhibition of Escherichia coli FabH expressed in Escherichia coli DH10B using holo-ACP/acetyl-CoA as substrate assessed as incorporation of [3H] signal in final product preincubated with holo-ACP for 1 hr followed by acetyl-CoA addition measured after 25 mins by liquid scintillation counting method
T1 sequence (P0A6R0 whole entry): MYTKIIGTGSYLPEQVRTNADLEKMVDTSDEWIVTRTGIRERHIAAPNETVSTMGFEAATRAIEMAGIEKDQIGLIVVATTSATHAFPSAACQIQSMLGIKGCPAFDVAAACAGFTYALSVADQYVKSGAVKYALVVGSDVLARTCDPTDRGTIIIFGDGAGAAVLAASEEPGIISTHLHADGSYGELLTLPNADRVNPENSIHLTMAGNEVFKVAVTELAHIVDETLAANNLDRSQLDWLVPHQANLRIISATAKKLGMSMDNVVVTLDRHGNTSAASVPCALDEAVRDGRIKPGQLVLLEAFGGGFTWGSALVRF

Staphylococcus aureus = test: Antibacterial activity against Staphylococcus aureus ATCC 6538 after 24 hrs by MTT assay; type: functional; conditions: ATCC 6538, 24 h
NIH3T3 = test: Cytotoxic activity against mouse NIH/3T3 cells after 24 hrs by MTT assay; type: cell-based; conditions: NIH3T3, 24 h
Bacillus subtilis = test: Antibacterial activity against Bacillus subtilis ATCC 530 after 24 hrs by MTT assay; type: functional; conditions: ATCC 530, 24 h

| SMILES | MIC (Pseudomonas aeruginosa) [µg/mL] | MIC (Escherichia coli) [µg/mL] | IC50 [1] [µM] | MIC (Staphylococcus aureus) [µg/mL] | IC50 (NIH3T3) [µM] | MIC (Bacillus subtilis) [µg/mL] |
| --- | --- | --- | --- | --- | --- | --- |
| O=C(N/N=C/c1ccc(O)c([N+](=O)[O-])c1)c1ccc2c(c1)OCCCO2 | 12.5 (≈ 35 µM) | 6.25 (≈ 17.5 µM) | 8.9 | 25 (≈ 70 µM) | 198 | 12.5 (≈ 35 µM) |
| O=C(N/N=C/c1cc([N+](=O)[O-])ccc1Cl)c1ccc2c(c1)OCCCO2 | 3.13 (≈ 8.33 µM) | 3.13 (≈ 8.33 µM) | 3.9 | 3.13 (≈ 8.33 µM) | 172 | 6.25 (≈ 16.6 µM) |
| COc1ccc(/C=N/NC(=O)c2ccc3c(c2)OCCCO3)cc1 | 12.5 (≈ 38.3 µM) | 25 (≈ 76.6 µM) | 24.1 | 25 (≈ 76.6 µM) | 132 | 50 (≈ 153 µM) |
| O=C(N/N=C/c1cc([N+](=O)[O-])ccc1O)c1ccc2c(c1)OCCCO2 | 3.13 (≈ 8.76 µM) | 6.25 (≈ 17.5 µM) | 3.5 | 6.25 (≈ 17.5 µM) | 157 | 3.13 (≈ 8.76 µM) |
| O=C(N/N=C/c1ccccc1Cl)c1ccc2c(c1)OCCCO2 | 50 (≈ 151 µM) | 25 (≈ 75.6 µM) |  | 50 (≈ 151 µM) |  | > 100 |
| O=C(N/N=C/c1ccc(I)cc1)c1ccc2c(c1)OCCCO2 | 25 (≈ 59.2 µM) | 25 (≈ 59.2 µM) | 6.9 | 6.25 (≈ 14.8 µM) | 201 | 12.5 (≈ 29.6 µM) |
| O=C(N/N=C/c1ccc(F)c([N+](=O)[O-])c1)c1ccc2c(c1)OCCCO2 | 6.25 (≈ 17.4 µM) | 12.5 (≈ 34.8 µM) | 5.1 | 6.25 (≈ 17.4 µM) | 131 | 6.25 (≈ 17.4 µM) |
| O=Cc1ccccc1/C=N/NC(=O)c1ccc2c(c1)OCCCO2 | 25 (≈ 77.1 µM) | 25 (≈ 77.1 µM) |  | 25 (≈ 77.1 µM) |  | 50 (≈ 154 µM) |
| CN(C)c1ccc(/C=N/NC(=O)c2ccc3c(c2)OCCCO3)c(O)c1 | 12.5 (≈ 35.2 µM) | 12.5 (≈ 35.2 µM) | 6.7 | 25 (≈ 70.3 µM) | 203 | 50 (≈ 141 µM) |
| COc1cc(/C=N/NC(=O)c2ccc3c(c2)OCCCO3)cc(OC)c1O | 6.25 (≈ 16.8 µM) | 3.13 (≈ 8.41 µM) | 3.9 | 6.25 (≈ 16.8 µM) | 147 | 3.13 (≈ 8.41 µM) |
| O=C(N/N=C/c1cccs1)c1ccc2c(c1)OCCCO2 | > 100 | > 100 |  | > 100 |  | > 100 |
| O=C(N/N=C/c1ccc(Cl)cc1Cl)c1ccc2c(c1)OCCCO2 | 6.25 (≈ 17.1 µM) | 6.25 (≈ 17.1 µM) | 4.3 | 6.25 (≈ 17.1 µM) | 198 | 12.5 (≈ 34.2 µM) |
| O=C(N/N=C/c1cccc2ccccc12)c1ccc2c(c1)OCCCO2 | 6.25 (≈ 18 µM) | 3.13 (≈ 9.04 µM) | 5.2 | 6.25 (≈ 18 µM) | 130 | 6.25 (≈ 18 µM) |
| Cc1ccccc1/C=N/NC(=O)c1ccc2c(c1)OCCCO2 | 50 (≈ 161 µM) | > 100 |  | > 100 |  | > 100 |
| O=C(N/N=C/c1ccc(O)cc1)c1ccc2c(c1)OCCCO2 | 25 (≈ 80 µM) | 50 (≈ 160 µM) | 38.7 | 12.5 (≈ 40 µM) | 178 | 25 (≈ 80 µM) |
| Cc1cccc(/C=N/NC(=O)c2ccc3c(c2)OCCCO3)c1 | 25 (≈ 80.6 µM) | 50 (≈ 161 µM) |  | > 100 |  | 50 (≈ 161 µM) |
| O=C(N/N=C/C=C/c1ccccc1)c1ccc2c(c1)OCCCO2 | 25 (≈ 77.6 µM) | 50 (≈ 155 µM) |  | > 100 |  | 50 (≈ 155 µM) |
| O=C(N/N=C/c1ccc(O)c(O)c1)c1ccc2c(c1)OCCCO2 | 12.5 (≈ 38.1 µM) | 12.5 (≈ 38.1 µM) | 7.8 | 25 (≈ 76.1 µM) | 102 | 25 (≈ 76.1 µM) |

| SMILES | MIC (Pseudomonas aeruginosa) [µg/mL] | MIC (Escherichia coli) [µg/mL] | IC50 [1] [µM] | MIC (Staphylococcus aureus) [µg/mL] | IC50 (NIH3T3) [µM] | MIC (Bacillus subtilis) [µg/mL] |
| --- | --- | --- | --- | --- | --- | --- |
| O=C(N/N=C/c1cc([N+](=O)[O-])ccc1F)c1ccc2c(c1)OCCCO2 | 12.5 (≈ 34.8 µM) | 6.25 (≈ 17.4 µM) | 9.5 | 12.5 (≈ 34.8 µM) | 168 | 12.5 (≈ 34.8 µM) |
| COc1ccc(/C=N/NC(=O)c2ccc3c(c2)OCCCO3)cc1OC | 3.13 (≈ 8.78 µM) | 3.13 (≈ 8.78 µM) | 4.1 | 6.25 (≈ 17.5 µM) | 126 | 3.13 (≈ 8.78 µM) |
| O=C(N/N=C/c1ccccc1)c1ccc2c(c1)OCCCO2 | 50 (≈ 169 µM) | 50 (≈ 169 µM) |  | > 100 |  | > 100 |
| O=C(N/N=C/c1cc(Cl)ccc1O)c1ccc2c(c1)OCCCO2 | 25 (≈ 72.1 µM) | 12.5 (≈ 36 µM) | 13.2 | 50 (≈ 144 µM) | 111 | 25 (≈ 72.1 µM) |
| O=C(N/N=C/c1cc(Cl)cc(Cl)c1O)c1ccc2c(c1)OCCCO2 | 6.25 (≈ 16.4 µM) | 12.5 (≈ 32.8 µM) | 5.4 | 12.5 (≈ 32.8 µM) | 184 | 6.25 (≈ 16.4 µM) |
| O=C(N/N=C/c1ccccc1Br)c1ccc2c(c1)OCCCO2 | 25 (≈ 66.6 µM) | 50 (≈ 133 µM) |  | 50 (≈ 133 µM) |  | 25 (≈ 66.6 µM) |
| O=C(N/N=C/c1ccc(F)cc1)c1ccc2c(c1)OCCCO2 | 25 (≈ 79.5 µM) | 12.5 (≈ 39.8 µM) | 32.5 | 25 (≈ 79.5 µM) | 126 | 50 (≈ 159 µM) |
| Cc1ccc(/C=N/NC(=O)c2ccc3c(c2)OCCCO3)cc1 | 50 (≈ 161 µM) | 50 (≈ 161 µM) |  | > 100 |  | 50 (≈ 161 µM) |
| O=C(N/N=C/c1ccc(Cl)c([N+](=O)[O-])c1)c1ccc2c(c1)OCCCO2 | 6.25 (≈ 16.6 µM) | 3.13 (≈ 8.33 µM) | 4.4 | 6.25 (≈ 16.6 µM) | 147 | 3.13 (≈ 8.33 µM) |
| C(=N\C1CCCCC1)/c1ccc2c(c1)OCCCO2 |  |  | 1.6 |  |  |  |
| COc1cc(/C=N/NC(=O)c2ccc3c(c2)OCCCO3)cc(OC)c1OC | 3.13 (≈ 8.1 µM) | 1.56 (≈ 4.04 µM) | 2 | 3.13 (≈ 8.1 µM) | 120 | 1.56 (≈ 4.04 µM) |
| Cc1ccc(/C=N/NC(=O)c2ccc3c(c2)OCCCO3)o1 | > 100 | > 100 |  | > 100 |  | > 100 |
| O=C(N/N=C/c1c(F)cccc1Cl)c1ccc2c(c1)OCCCO2 | 25 (≈ 71.7 µM) | 12.5 (≈ 35.8 µM) | 20.6 | 25 (≈ 71.7 µM) | 164 | 50 (≈ 143 µM) |
| O=C(N/N=C/c1ccc2ccccc2c1)c1ccc2c(c1)OCCCO2 | 3.13 (≈ 9.04 µM) | 6.25 (≈ 18 µM) | 4.6 | 6.25 (≈ 18 µM) | 114 | 3.13 (≈ 9.04 µM) |
| O=C(N/N=C/c1ccccc1O)c1ccc2c(c1)OCCCO2 | 50 (≈ 160 µM) | 50 (≈ 160 µM) |  | 25 (≈ 80 µM) |  | 12.5 (≈ 40 µM) |
| O=C(N/N=C/c1ccc(-c2ccccc2)cc1)c1ccc2c(c1)OCCCO2 | 6.25 (≈ 16.8 µM) | 3.13 (≈ 8.4 µM) | 4.7 | 12.5 (≈ 33.6 µM) | 146 | 6.25 (≈ 16.8 µM) |
| NC[C@H]1O[C@H](O[C@H]2[C@H](O)[C@@H](O[C@H]3O[C@H](CO)[C@@H](O)[C@H](N)[C@H]3O)[C@H](N)C[C@@H]2N)[C@H](N)[C@@H](O)[C@@H]1O [BEKANAMYCIN] | 3.13 (≈ 6.47 µM) | 3.13 (≈ 6.47 µM) | 5.6 | 1.56 (≈ 3.23 µM) |  | 1.56 (≈ 3.23 µM) |
